Measurements: patent publication US20100279941A1, “CD36 MODULATION AND USES THEREOF” (priority 2009, published 2010)

Experiments:
Format in all cases: in vivo
[1] = system: CD36^+/+ and CD36^−/− mice; experiment: Ventricular and ejection volumes by ECG-gated μPET after transient myocardial ischemia; conditions: EP 80317-treated WT mice vs 0.9% NaCl
Experimental: (§1) Experimental model of IHD: Transient left coronary artery ligation in vivo. Mice were subjected to a transient LCAL surgery as described before, with minor modifications [Tarnayski et al., 2004]. Mice were injected i.p. with buprenorphine (0.05 mg/kg) and placed in an induction chamber with inhalation anesthesia comprised of 3% isoflurane mixed with 100% oxygen. Mice were intubated with a blunt ended 20-gauge catheter into the trachea via the mouth and mechanically ventilated at a tidal volume of 7 ml/kg at 130 respirations/min with a MiniVent™ mouse ventilator (model 845, Harvard Apparatus, Saint-Laurent, QC, Canada). Anesthesia was maintained with 1.5-2% isoflurane and the animals were kept warm using electrical heating pads during the surgical procedure. The chest was opened by a horizontal incision through the skin and muscle layers at the third intercostal space exposing the left side of the heart. […] Visual blanching distal to the coronary occlusion confirmed myocardial ischaemia. Lidocaine (6 mg/kg) was administered i.p. just following occlusion and prior to reperfusion. After 30 minutes, the PE10 tubing was removed allowing reperfusion. The lungs were reinflated and the chest wound closed layer by layer before extubation. At 6 hours following reperfusion, mice were anesthetized (isoflurane), a blood sample withdrawn, and the heart arrested in diastole by an intravenous injection of 1 M KCl (0.5 mL). Hearts were immediately frozen at −80° C. unless otherwise stated.
Imaging experiments. Imaging experiments were performed with the avalanche photodiode-based small animal PET scanner (μPET) [Lecomte et al., 1996]. Before imaging, the heart position was localized with a Doppler probe (0.64 cm, 9 MHz; Parks Medical Electronics). […]
(§2) Imaging Data Analysis. For [^11C]-acetate images, dynamic series of 25 frames each were sorted out whereas 27 frames were used for ^18FDG and ^18FTHA imaging, and were reconstructed and analyzed using multicompartmental analysis [Menard et al., 2009] or the Patlak method for FTHA [Patlak and Blasberg, 1985]. […]

[2] = system: CD36^+/+ and CD36^−/− mice; experiment: Area at risk and infarct size after 30-min LCAL and 48 hours reperfusion (Evans blue/TTC)
Description: Animals. CD36^−/− mice were generated by targeted homologous recombination and backcrossed six times to C57BI/6. Wild-type control littermates (CD36^+/+) were bred from the same cross and were therefore of identical genetic background [Febbraio et al., 2000]. Male mice, aged 23 (±1) weeks, were used for experiments. They were fed standard chow (#5075, Charles Rivers, Saint-Constant, Québec, Canada) and water ad libitum, and housed singly during treatment periods (2 or 10 weeks). Daily pharmacological treatments with 300 μg/kg of EP 80317 or CP1A(IV) or vehicle (0.9% NaCl) were done by subcutaneous (s.c.) injections.
C57BU6 mice were bred in house. Male mice, aged 23 (±1) weeks, were used for experiments. They were fed standard chow (#5075, Charles Rivers, Saint-Constant, Québec, Canada) and water ad libitum, and housed singly during treatment periods (2 weeks). Daily pharmacological treatments with 300 μg/kg (289 nmol/kg) of EP 80317 or 289 nmol/kg of CP-3(IV), 289 nmol/kg of CP-AP-4 or vehicle (0.9% NaCl) were done by subcutaneous (s.c.) injections.
as §1
Evaluation of area at risk and infarct size. Two days after reperfusion, the left anterior descending (LAD) coronary artery was re-occluded at the original site and the abdominal aorta was injected retrogradly with 5% Evans blue dye to delineate the AAR by the absence of dark blue staining. The left ventricle, including the interventricular septum, was dissected and cut into transverse 1-mm slices from the apex to the base, using an acrylic matrix (Alto Inc., Hatfield, Pa., USA). The slices were incubated in 1% triphenyltetrazolium chloride solution at 37° C. for 15 min and placed in 10% neutral buffered formalin for 12 hours. Each slice was weighed and photographed on both sides with a digital camera (Nikon, Coolpix™ 4500, Mississauga, Ontario, Canada). The total LV area, AAR and IA were determined for each side of a slice by planimetric analysis using Adobe CS3 Photoshop™ software (Ottawa, ON, Canada), and averaged. The infarct weight was determined as follows: [(A1×WT1)+(A2×WT2)+(A3×WT3)+(A4×WT4) . . . ] where A and WT are the infarct area and weight of the section, respectively. The AAR weight was calculated in a similar manner, but by subtracting the blue (viable) stained zone from the weight. The results are expressed in terms of % IA/AAR, IA/LV and AAR/LV.

[3] = system: circulating blood leukocytes; experiment: Opsonized zymosan-stimulated luminol-enhanced whole blood chemiluminescence; conditions: 48 hours reperfusion; CD36^+/+ mice; 10-week pretreatment; p<0.05
Experimental: as §1, with “The lungs were reinflated and the chest wound closed layer by layer before extubation. At 6 hours following reperfusion, mice were anesthetized (isoflurane), a blood sample withdrawn, and the heart arrested in diastole by an intravenous injection of 1 M KCl (0.5 mL). Hearts were immediately frozen at −80° C. unless otherwise stated.” left out
Whole blood chemiluminescence. […] The chemiluminescence signals were recorded using a computer-assisted luminometer (model 500; Chronolog Corp, Havertown, Pa., USA). Chemiluminescence intensities were measured as the peak amplitude in arbitrary units.

[4] = system: CD36^+/+ and CD36^−/− mice; experiment: Myocardial oxidative metabolism by μPET with [11C]-acetate; conditions: in words
Experimental: as §1, with “After 30 minutes, the PE10 tubing was removed allowing reperfusion. The lungs were reinflated and the chest wound closed layer by layer before extubation. At 6 hours following reperfusion, mice were anesthetized (isoflurane), a blood sample withdrawn, and the heart arrested in diastole by an intravenous injection of 1 M KCl (0.5 mL). Hearts were immediately frozen at −80° C. unless otherwise stated.” left out
as §2

[5] = system: CD36^+/+ and CD36^−/− mice; experiment: Myocardial metabolic rate of glucose by μPET with [18F]-FDG; conditions: 6 hours reperfusion; in words
Experimental: as §1, with “After 30 minutes, the PE10 tubing was removed allowing reperfusion. The lungs were reinflated and the chest wound closed layer by layer before extubation. At 6 hours following reperfusion, mice were anesthetized (isoflurane), a blood sample withdrawn, and the heart arrested in diastole by an intravenous injection of 1 M KCl (0.5 mL). Hearts were immediately frozen at −80° C. unless otherwise stated.” left out
as §2

[6] = 2-week treatment 300 μg/kg/d, CD36^+/+ mice, 48 hours reperfusion, p<0.05 vs vehicle

HAIC-2MeDTrp-DLys-Trp-DPhe-Lys-NH2 [EP 80317]
increase of end-systolic ventricular volume [1]: 26% | increase of end-diastolic ventricular volume ([1]; p<0.01): 31% | increase of stroke volume ([1]; p<0.01): 33% | reduction of IA/AAR ratio [2, 6]: 31% | reduction of IA/LV ratio [2, 6]: 34% | area-at-risk ([2]; CD36^+/+ (C57BL/6) mice, 289 nmol/kg 2 weeks, 48 hours reperfusion, mean (±SE)): 51 (±5) % | reduction of IA/LV ratios ([2]; CD36^+/+ (C57BL/6) mice, 289 nmol/kg 2 weeks, 48 hours reperfusion, p<0.001 vs 0.9% NaCl): 48% | effect on infarct size ([2]; CD36^−/− mice, 48 hours reperfusion, in words): did not modulate | effect on AAR/LV ([2]; pretreatment 14 days, both CD36^+/+ and CD36^−/− mice, in words): did not modulate | reduction of circulating blood leukocyte priming and/or activation [3]: 53% | myocardial oxidative metabolism (k2) ([4]; CD36^+/+ mice pre-treated): reduced | myocardial oxidative metabolism (k2) ([4]; CD36^−/− mice): unaffected | myocardial metabolic rate of glucose (MMRG) [5]: not modulated
